In patent US20200316083A1, “ANTIBACTERIAL COMPOSITIONS” (WOCKHARDT LIMITED, priority 2016, published 2020):

What was measured:
Format in all cases: cell-based
[1] = test system: E. coli 7MP producing Class A and Class C beta-lactamase enzymes; experiment: Time kill study against E. coli 7MP; settings: for Effect on bacterial count (in words): alone or in combination
Description: (§1) In general, the antibacterial activity of compositions according to invention was studied by performing time kill studies. In a typical time kill study, the freshly grown cultures were diluted to the required cell density (initial starting inoculum) in cation adjusted Muller Hinton broth medium (BD, USA). The antibacterial agents (either alone or in combination) at the required concentrations were added into the culture-containing medium. The samples were incubated under shaking condition (120 rpm) at 37° C. Enumeration of viable bacterial count was done every 2 hour by diluting in normal saline and plating on to the Tryptic Soya Agar plates (BD, USA). The plates were incubated for 24 hours to arrive at a viable bacterial count. The results are expressed in terms of log10 CFU/ml. In general, the decrease of 1 log10 CFU/ml corresponds to 90% killing of bacteria. Similarly, 2 log10 CFU/ml reductions indicates to 99% killing of bacteria and 3 log10 CFU/ml reductions is equal to 99.9% killing of bacteria.

[2] = test system: K. pneumoniae B-88 producing metallo beta-lactamase enzymes; experiment: Time kill study against K. pneumoniae B-88
Description: as §1

[3] = test system: A. baumanni 13301 producing Carbapenem hydrolysing beta-lactamase enzymes; experiment: Time kill study against A. baumanni 13301
Description: as §1

[4] = summary of Table 5, throughout the duration of the study

NC(=O)[C@@H]1CC[C@@H]2CN1C(=O)N2OS(=O)(=O)O [Avibactam, reference compound]
Change in Log10 CFU/ml over 0 hour count after 8 hours ([1]; Table 5, 4 mcg/ml alone): 2.28 Log10 CFU/ml | Bacterial count (Log10 CFU/ml) 2 hours ([1]; Table 5, 4 mcg/ml alone): 7.90 Log10 CFU/ml | Bacterial count (Log10 CFU/ml) 4 hours ([1]; Table 5, 4 mcg/ml alone): 9.23 Log10 CFU/ml | Bacterial count (Log10 CFU/ml) 6 hours ([1]; Table 5, 4 mcg/ml alone): 9.30 Log10 CFU/ml | Bacterial count (Log10 CFU/ml) 8 hours ([1]; Table 5, 4 mcg/ml alone): 9.36 Log10 CFU/ml | Effect on bacterial count (in words) [1, 4]: did not reduce the bacterial count

O=C(O)[C@H]1/C(=C/CO)O[C@@H]2CC(=O)N21 [Clavulanic acid, reference compound]
Change in Log10 CFU/ml over 0 hour count after 8 hours ([1]; Table 5, 4 mcg/ml alone): 2.28 Log10 CFU/ml | Bacterial count (Log10 CFU/ml) 2 hours ([1]; Table 5, 4 mcg/ml alone): 7.90 Log10 CFU/ml | Bacterial count (Log10 CFU/ml) 4 hours ([1]; Table 5, 4 mcg/ml alone): 9.23 Log10 CFU/ml | Bacterial count (Log10 CFU/ml) 6 hours ([1]; Table 5, 4 mcg/ml alone): 9.30 Log10 CFU/ml | Bacterial count (Log10 CFU/ml) 8 hours ([1]; Table 5, 4 mcg/ml alone): 9.36 Log10 CFU/ml | Effect on bacterial count (in words) [1, 4]: did not reduce the bacterial count

N#C[C@@H]1CC[C@@H]2CN1C(=O)N2OS(=O)(=O)O [Compound (B)]
Bacterial count (Log10 CFU/ml) 0 hours ([2]; 2 mcg/ml alone): 7.28 Log10 CFU/ml | Change in Log10 CFU/ml over 0 hour count after 24 hours ([2]; 2 mcg/ml alone): 2.12 Log10 CFU/ml | Bacterial count (Log10 CFU/ml) 2 hours ([2]; 2 mcg/ml alone): 8.27 Log10 CFU/ml | Bacterial count (Log10 CFU/ml) 4 hours ([2]; 2 mcg/ml alone): 9.04 Log10 CFU/ml | Bacterial count (Log10 CFU/ml) 6 hours ([2]; 2 mcg/ml alone): 9.18 Log10 CFU/ml | Bacterial count (Log10 CFU/ml) 24 hours ([2]; 2 mcg/ml alone): 9.40 Log10 CFU/ml | Effect on bacterial count (in words) ([2]; summary of Table 1, alone or in combination): could not reduce the bacterial count | Change in Log10 CFU/ml over 0 hour count after 24 hours ([1]; Table 2, 4 mcg/ml alone): 2.28 Log10 CFU/ml | Bacterial count (Log10 CFU/ml) 2 hours ([1]; Table 2, 4 mcg/ml alone): 7.90 Log10 CFU/ml | Bacterial count (Log10 CFU/ml) 4 hours ([1]; Table 2, 4 mcg/ml alone): 9.23 Log10 CFU/ml | Bacterial count (Log10 CFU/ml) 6 hours ([1]; Table 2, 4 mcg/ml alone): 9.30 Log10 CFU/ml | Bacterial count (Log10 CFU/ml) 24 hours ([1]; Table 2, 24 hours, 4 mcg/ml alone): 9.36 Log10 CFU/ml | Effect on bacterial count (in words) ([1]; summary of Table 2): could not reduce the bacterial count | Bacterial count (Log10 CFU/ml) 0 hours ([3]; 0 hours, 4 mcg/ml alone): 6.88 Log10 CFU/ml | Change in Log10 CFU/ml over 0 hour count after 24 hours ([3]; 4 mcg/ml alone): 2.16 Log10 CFU/ml | Bacterial count (Log10 CFU/ml) 2 hours ([3]; 2 hours, 4 mcg/ml alone): 8.04 Log10 CFU/ml | Bacterial count (Log10 CFU/ml) 4 hours ([3]; 4 hours, 4 mcg/ml alone): 8.74 Log10 CFU/ml | Bacterial count (Log10 CFU/ml) 6 hours ([3]; 6 hours, 4 mcg/ml alone): 8.90 Log10 CFU/ml | Bacterial count (Log10 CFU/ml) 8 hours ([3]; 8 hours, 4 mcg/ml alone): 9.20 Log10 CFU/ml | Bacterial count (Log10 CFU/ml) 24 hours ([3]; 24 hours, 4 mcg/ml alone): 9.04 Log10 CFU/ml | Effect on bacterial count (in words) ([3]; summary of Table 3, alone or in combination): could not reduce the bacterial count

C[C@@H](O)[C@H]1C(=O)N2C(C(=O)O)=C(SCCN=CN)C[C@H]12 [Imipenem, reference compound]
Bacterial count (Log10 CFU/ml) 0 hours ([2]; 8 mcg/ml alone): 7.28 Log10 CFU/ml | Change in Log10 CFU/ml over 0 hour count after 24 hours ([2]; 8 mcg/ml alone): 2.02 Log10 CFU/ml | Bacterial count (Log10 CFU/ml) 2 hours ([2]; 8 mcg/ml alone): 8.04 Log10 CFU/ml | Bacterial count (Log10 CFU/ml) 4 hours ([2]; 8 mcg/ml alone): 8.65 Log10 CFU/ml | Bacterial count (Log10 CFU/ml) 6 hours ([2]; 8 mcg/ml alone): 9.20 Log10 CFU/ml | Bacterial count (Log10 CFU/ml) 24 hours ([2]; 8 mcg/ml alone): 9.30 Log10 CFU/ml

C[C@]1(Cn2ccnn2)[C@H](C(=O)O)N2C(=O)C[C@H]2S1(=O)=O [Tazobactam, reference compound]
Change in Log10 CFU/ml over 0 hour count after 8 hours ([1]; Table 5, 4 mcg/ml alone): 2.28 Log10 CFU/ml | Bacterial count (Log10 CFU/ml) 2 hours ([1]; Table 5, 4 mcg/ml alone): 7.90 Log10 CFU/ml | Bacterial count (Log10 CFU/ml) 4 hours ([1]; Table 5, 4 mcg/ml alone): 9.23 Log10 CFU/ml | Bacterial count (Log10 CFU/ml) 6 hours ([1]; Table 5, 4 mcg/ml alone): 9.30 Log10 CFU/ml | Bacterial count (Log10 CFU/ml) 8 hours ([1]; Table 5, 4 mcg/ml alone): 9.36 Log10 CFU/ml | Effect on bacterial count (in words) [1, 4]: did not reduce the bacterial count
